Reference: PubChem BioAssay AID2060511 (Molecular Pharmacology Branch, DTP, NCI, 2025)

Tested on: 422866-222-R5-J1-PDC spheroids with HUVEC/MSC, viability
Assay: Anticancer human tumor 422866-222-R5-J1-PDC patient-derived pancreatic adenocarcinoma cell line growth inhibition [GQUAD]
Settings: for IC50: curve of first compound; for viability, T/C: stronger effect = lower value
Method in brief: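 Tumor cells were grown as complex spheroids with HUVEC endothelial cells and mesenchymal stem cells as stroma. G-quadruplex stabilizers were combined with targeted agents over half-log dilutions from near the clinical Cmax, or from 10 microM.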

[1] = second compound 0.0316 µM, first compound 0.0316 µM
[2] = second compound 0.0316 µM, first compound 0.1 µM
[3] = second compound 0.0316 µM, first compound 0.316 µM
[4] = second compound 0.0316 µM, first compound 1 µM
[5] = second compound 0.0316 µM, first compound 3.16 µM
[6] = second compound 0.0316 µM, first compound 10 µM
[7] = second compound 0.1 µM, first compound 0.0316 µM
[8] = second compound 0.1 µM, first compound 0.1 µM
[9] = second compound 0.1 µM, first compound 0.316 µM
[10] = second compound 0.1 µM, first compound 1 µM
[11] = second compound 0.1 µM, first compound 3.16 µM
[12] = second compound 0.1 µM, first compound 10 µM
[13] = second compound 0.316 µM, first compound 0.0316 µM
[14] = second compound 0.316 µM, first compound 0.1 µM
[15] = second compound 0.316 µM, first compound 0.316 µM
[16] = second compound 0.316 µM, first compound 1 µM
[17] = second compound 0.316 µM, first compound 3.16 µM
[18] = second compound 0.316 µM, first compound 10 µM
[19] = second compound 1 µM, first compound 0.0316 µM
[20] = second compound 1 µM, first compound 0.1 µM
[21] = second compound 1 µM, first compound 0.316 µM
[22] = second compound 1 µM, first compound 1 µM
[23] = second compound 1 µM, first compound 3.16 µM
[24] = second compound 1 µM, first compound 10 µM
[25] = second compound 3.16 µM, first compound 0.0316 µM
[26] = second compound 3.16 µM, first compound 0.1 µM
[27] = second compound 3.16 µM, first compound 0.316 µM
[28] = second compound 3.16 µM, first compound 1 µM
[29] = second compound 3.16 µM, first compound 3.16 µM
[30] = second compound 3.16 µM, first compound 10 µM
[31] = second compound 10 µM, first compound 0.0316 µM
[32] = second compound 10 µM, first compound 0.1 µM
[33] = second compound 10 µM, first compound 0.316 µM
[34] = second compound 10 µM, first compound 1 µM
[35] = second compound 10 µM, first compound 3.16 µM
[36] = second compound 10 µM, first compound 10 µM
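Also: spheroids exposed to compounds for seven days before reading.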
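For viability, T/C in this document: percent viability relative to DMSO vehicle control taken as 100%.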

C=CC(=O)N1CCN(c2nc(=O)n(-c3c(C)ccnc3C(C)C)c3nc(-c4c(O)cccc4F)c(F)cc23)C(C)C1 (stereo unspecified) + Cc1[nH]c2ccc(F)cc2c1-c1nc2c3cccnc3c3ncccc3c2[nH]1
IC50 (second compound 0.0316 µM): < 0.0316 µM | IC50 (second compound 0.1 µM): < 0.0316 µM | IC50 (second compound 0.316 µM): < 0.0316 µM | IC50 (second compound 1 µM): < 0.0316 µM | IC50 (second compound 3.16 µM): < 0.0316 µM | IC50 (second compound 10 µM): < 0.0316 µM | viability, T/C [1]: 43.8% | viability, T/C [2]: 32.5% | viability, T/C [3]: 25.1% | viability, T/C [4]: 28.4% | viability, T/C [5]: 29.4% | viability, T/C [6]: 28.1% | viability, T/C [7]: 41.1% | viability, T/C [8]: 33.6% | viability, T/C [9]: 24.9% | viability, T/C [10]: 26.5% | viability, T/C [11]: 29.1% | viability, T/C [12]: 31.7% | viability, T/C [13]: 44.1% | viability, T/C [14]: 29.1% | viability, T/C [15]: 24.8% | viability, T/C [16]: 24.1% | viability, T/C [17]: 30.1% | viability, T/C [18]: 29.8% | viability, T/C [19]: 38.1% | viability, T/C [20]: 30.4% | viability, T/C [21]: 26.8% | viability, T/C [22]: 25.3% | viability, T/C [23]: 28% | viability, T/C [24]: 30.9% | viability, T/C [25]: 32.6% | viability, T/C [26]: 27.4% | viability, T/C [27]: 25.8% | viability, T/C [28]: 27.5% | viability, T/C [29]: 28.8% | viability, T/C [30]: 25.7% | viability, T/C [31]: 27.2% | viability, T/C [32]: 29.6% | viability, T/C [33]: 26.3% | viability, T/C [34]: 26.3% | viability, T/C [35]: 28.1% | viability, T/C [36]: 27.9%

CC(=O)O[C@H]1C(=O)[C@@]2(C)[C@H]([C@H](OC(=O)c3ccccc3)[C@]3(O)C[C@H](OC(=O)[C@H](O)[C@@H](NC(=O)c4ccccc4)c4ccccc4)C(C)=C1C3(C)C)[C@]1(OC(C)=O)CO[C@@H]1C[C@@H]2O + Cc1[nH]c2ccc(F)cc2c1-c1nc2c3cccnc3c3ncccc3c2[nH]1
IC50 (second compound 0.0316 µM): 0.671 µM | IC50 (second compound 0.1 µM): 1.3 µM | IC50 (second compound 0.316 µM): 2.04 µM | IC50 (second compound 1 µM): 1.72 µM | IC50 (second compound 3.16 µM): 2.16 µM | IC50 (second compound 10 µM): 2.04 µM | viability, T/C [1]: 143% | viability, T/C [2]: 143% | viability, T/C [3]: 74.7% | viability, T/C [4]: 39% | viability, T/C [5]: 44.4% | viability, T/C [6]: 1.31% | viability, T/C [7]: 109% | viability, T/C [8]: 128% | viability, T/C [9]: 100% | viability, T/C [10]: 48.5% | viability, T/C [11]: 37.1% | viability, T/C [12]: 2.15% | viability, T/C [13]: 122% | viability, T/C [14]: 107% | viability, T/C [15]: 99.5% | viability, T/C [16]: 55.3% | viability, T/C [17]: 46.9% | viability, T/C [18]: 3.01% | viability, T/C [19]: 117% | viability, T/C [20]: 115% | viability, T/C [21]: 98.5% | viability, T/C [22]: 53.4% | viability, T/C [23]: 42% | viability, T/C [24]: 2.03% | viability, T/C [25]: 70.5% | viability, T/C [26]: 75% | viability, T/C [27]: 95% | viability, T/C [28]: 43.4% | viability, T/C [29]: 50% | viability, T/C [30]: 3.32% | viability, T/C [31]: 56.1% | viability, T/C [32]: 62% | viability, T/C [33]: 58.2% | viability, T/C [34]: 46.6% | viability, T/C [35]: 49.7% | viability, T/C [36]: 4.03%

CC[C@@]1(O)C(=O)OCc2c1cc1n(c2=O)Cc2cc3c(CN(C)C)c(O)ccc3nc2-1 + Cc1[nH]c2ccc(F)cc2c1-c1nc2c3cccnc3c3ncccc3c2[nH]1
IC50 (second compound 0.0316 µM): 0.0646 µM | IC50 (second compound 0.1 µM): 0.0866 µM | IC50 (second compound 0.316 µM): 0.128 µM | IC50 (second compound 1 µM): 0.102 µM | IC50 (second compound 3.16 µM): 0.0797 µM | IC50 (second compound 10 µM): 0.053 µM | viability, T/C (second compound 0.0316 µM, first compound 0.000999 µM): 92.9% | viability, T/C (second compound 0.0316 µM, first compound 0.00316 µM): 95.8% | viability, T/C (second compound 0.0316 µM, first compound 0.00999 µM): 92.8% | viability, T/C [1]: 56.9% | viability, T/C (second compound 0.0316 µM, first compound 0.0999 µM): 46.2% | viability, T/C [3]: 45.2% | viability, T/C (second compound 0.1 µM, first compound 0.000999 µM): 104% | viability, T/C (second compound 0.1 µM, first compound 0.00316 µM): 90.8% | viability, T/C (second compound 0.1 µM, first compound 0.00999 µM): 86.2% | viability, T/C [7]: 61.7% | viability, T/C (second compound 0.1 µM, first compound 0.0999 µM): 48.8% | viability, T/C [9]: 36.8% | viability, T/C (second compound 0.316 µM, first compound 0.000999 µM): 99.8% | viability, T/C (second compound 0.316 µM, first compound 0.00316 µM): 88.4% | viability, T/C (second compound 0.316 µM, first compound 0.00999 µM): 85.5% | viability, T/C [13]: 71.7% | viability, T/C (second compound 0.316 µM, first compound 0.0999 µM): 49.2% | viability, T/C [15]: 43.4% | viability, T/C (second compound 1 µM, first compound 0.000999 µM): 92.7% | viability, T/C (second compound 1 µM, first compound 0.00316 µM): 98.5% | viability, T/C (second compound 1 µM, first compound 0.00999 µM): 76.2% | viability, T/C [19]: 74.5% | viability, T/C (second compound 1 µM, first compound 0.0999 µM): 46.4% | viability, T/C [21]: 39.8% | viability, T/C (second compound 3.16 µM, first compound 0.000999 µM): 83.7% | viability, T/C (second compound 3.16 µM, first compound 0.00316 µM): 97.3% | viability, T/C (second compound 3.16 µM, first compound 0.00999 µM): 78.4% | viability, T/C [25]: 69.2% | viability, T/C (second compound 3.16 µM, first compound 0.0999 µM): 44.4% | viability, T/C [27]: 38% | viability, T/C (second compound 10 µM, first compound 0.000999 µM): 69.7% | viability, T/C (second compound 10 µM, first compound 0.00316 µM): 79.2% | viability, T/C (second compound 10 µM, first compound 0.00999 µM): 73.5% | viability, T/C [31]: 56.3% | viability, T/C (second compound 10 µM, first compound 0.0999 µM): 42.8% | viability, T/C [33]: 40.8%
